We go through 1 compound from paper PMC11243320, “Tailoring Fibroblast-Activation Protein Targeting for Theranostics: A Comparative Preclinical Evaluation of the ^68Ga- and ^177Lu-Labeled Monomeric and Dimeric Fibroblast-Activation Protein Inhibitors DOTA.SA.FAPi and DOTAGA.(SA.FAPi)2” (Molecules, 2024).

This experiment relates to CAFs. Description: Externalization studies in CAFs. The conditions noted are these: after 24 h at 37 °C. The class given is cell-based, human. The method, then:
For saturation studies, CAFs were incubated with increasing concentrations of the radiotracers (0.1–10 nM). For internalization studies, approximately 2.5 pmol of the radiotracers were added to CAFs followed by incubation for 15, 30, 60, 90, 120, 180 and 240 min for the ^68Ga-labeled or 30, 60, 120, 240 and 360 min for the ^177Lu-labeled radiotracers at 37 °C, 5% CO2. For the externalization studies, approximately 2.5 pmol of the ^177Lu-labeled radiotracers were added to CAFs followed by incubation for 2 h at 37 °C, 5% CO2. Afterward, the amount of the externalized activity from the CAFs was determined at 0, 10, 20, 30, 60, 120, 240, and 1440 min (Supplemental Data).
Saturation Binding Studies […]
At each time point, the internalization was stopped by putting the plates on ice, removing the me-dium, and washing the cells twice with ice-cold PBS. […] The radioactivity of the culture medium, the receptor bound, and the internal-ized fractions were measured in a γ-counter.
The externalization rate of [177Lu]Lu-DOTA.SA.FAPi and [177Lu]Lu-DOTAGA.(SA.FAPi)2 was studied af-ter CAFs were incubated for 2 h with 2.5 pmol/well of each 177Lu-lebeled radioligand. […] The radioactivity of the culture medium, the receptor bound , the internalized and the externalized fractions were measured in a γ -counter. […]

Molecules are shown by their SMILES.

`N#C[C@@H]1CC(F)(F)CN1C(=O)CNC(=O)c1ccnc2ccc(OCCCCNc3c(NCCNC(=O)CN4CCN(CC(=O)[O-])CCN(CC(=O)[O-])CCN(CC(=O)[O-])CC4)c(=O)c3=O)cc12.[177Lu+3]` [[^177Lu]Lu-DOTA.SA.FAPi]: the “Total internalized activity released from the CAFs into the medium” value is on record as “more than 93%” and the “Total internalized activity remaining in the CAFs” value is 7%.
